# Data: PMC5884652, “New antimicrobial peptide kills drug-resistant pathogens without detectable resistance” (Oncotarget, 2018)
# Ends that are not written are not given here.
# Assays:
# [1] = assay type: in vivo; conditions: 30 min; topical, 200 μg/mL, hairless mouse skin, fluorescence microscopy
# Method: Topical delivery of rhodamine-labeled CSP-4 was evaluated on hairless mouse skin. Male hairless mice (6 weeks old) bred by Hoshino Laboratory Animals, Inc. (Bandou-shi, Japan) were purchased from Japan SLC, Inc. (Hamamatsu, Japan). After anesthetizing 5 mice per group (3 groups) with isoflurane, rhodamine-labeled CSP-4 (200 μg/mL) was spread on the hairless mouse skin. The skin was then examined for reactions every 5 min for 30 min. Skin tissue was collected and washed once in PBS, fixed in 4% paraformaldehyde for 12 h, dehydrated in 50% and 100% ethanol (2 h each), and washed 3 times in xylene substitute (1 h/wash). Paraffin-embedded samples were cut into 4 μm-thick sections (Microtome; Thermo Scientific, Waltham, MA, USA) and examined under a fluorescence microscope (IX71; Olympus; Tokyo, Japan).
# Supplementary Figure 2: Topical application of rhodamine-labeled CSP-4 to the skin of hairless mouse. Mice were anesthetized with isoflurane and immobilized. Rhodamine-labeled CSP-4 (200 μg/ml) was then applied to the skin in a topical spread.
# Diffusion of the peptide into the skin was assessed after 5, 10, 15, 20, 25 and 30 min.
# Supplementary Figure 3: Observation of GUVs (PE/PG) with peptides. […] Morphological changes and calcein leakage from the GUVs was monitored. GUVs were examined under an inverted fluorescence phase contrast microscope, and images were recoded using a digital CCD camera. […]
# [2] = tested on: P. aeruginosa 3547; assay: microbe, parasite or virus in culture; assay type: cell-based, Pseudomonas aeruginosa; conditions: pH 7.4 (II); 10 mM sodium phosphate buffer, 10% LB; 37° C, 24 h; mean of 3 experiments
# From the text: (§1) The method for peptide synthesis has been described in detail previously. E. coli ATCC 25922 (LB media), P. aeruginosa ATCC 15692 (NB+0.5% NaCl media), Listeria monocytogenes ATCC 3710 (LB media), Staphylococcus epidermidis ATCC 12228 (LB media), and S. aureus ATCC 29213 (TSB media) were obtained from the American Type Culture Collection (Manassas, VA, USA). Bacillus subtilis KCTC 1998 (LB media), Salmonella typhimurium KCTC 1926 (NB media), and Proteus vulgaris KCTC 2433 (NB media) were obtained from the Korean Collection for Type Cultures (Jeollabuk-do, Korea). E. coli CCARM 1238 was received from the Culture Collection of Antibiotic Resistant Microbes at Seoul Women’s University, Korea. Drug-resistant P. aeruginosa 3543, 3904, 3547, and 4007 and S. aureus 3126, 0027, 5157, 1635, 4761, 5159, 3359, 2122, 1630, 1870, 3511, 5156, and 3518 were resistant strains isolated from patients with otitis media in a Chonnam National University’s hospital.
# (§2) The antibacterial activities of AMPs (melittin, clavaspirin, and its analogs) and conventional antibiotic drugs (erythromycin, gentamicin, ampicillin, and piperacidin) were determined using microdilution assays. Bacterial cells were cultured at 37° C in appropriate culture media at pH 5.5 or pH 7.4 until collection during the mid-log phase and suspended in 10 mM sodium phosphate buffer (pH 5.5 or pH 7.4) supplemented with 10% culture medium. Thereafter, 2× serial dilutions of each peptide (0.25–128 μM) or antibiotic (0.25–256 μM) were added to sterile 96-well plates, and aliquots of cell suspension (5 × 10^5 colony forming units (cfu)/mL) were seeded into each well. The samples were then incubated at 37° C for 24 h. At the end of the incubation, the minimum inhibitory concentrations (MICs) of the peptides were determined using a VERSA Max microplate reader (Molecular Devices Co., Sunnyvale, CA, USA) at a wavelength of 600 nm. […] MIC values were calculated as the mean of 3 independent experiments conducted in triplicate.
# [3] = tested on: P. aeruginosa 3543; assay: microbe, parasite or virus in culture; assay type: cell-based, Pseudomonas aeruginosa; conditions: pH 7.4 (II); 10 mM sodium phosphate buffer, 10% LB; 37° C, 24 h; mean of 3 experiments
# From the text: as §1, §2
# [4] = tested on: P. aeruginosa 4007; assay: microbe, parasite or virus in culture; assay type: cell-based, Pseudomonas aeruginosa; conditions: pH 7.4 (II); 10 mM sodium phosphate buffer, 10% LB; 37° C, 24 h; mean of 3 experiments
# From the text: as §1, §2
# [5] = tested on: P. aeruginosa 3904; assay: microbe, parasite or virus in culture; assay type: cell-based, Pseudomonas aeruginosa; conditions: pH 7.4 (II); 10 mM sodium phosphate buffer, 10% LB; 37° C, 24 h; mean of 3 experiments
# From the text: as §1, §2
# [6] = tested on: E. coli LPS; assay: Peptide-LPS binding affinity assay (dansyl polymyxin B); conditions: LPS 9 µg, 2.5 μM dansyl polymyxin B, 5 mM HEPES buffer pH 7.4, peptide 0.4 to 4 μM
# Method: (§3) Lipoteichoic acid (LTA) and lipopolysaccharide (LPS) binding affinity assays were performed using a Perkin-Elmer LS55 fluorometer (Waltham, MA, USA). S. aureus LTA and E. coli LPS (9 µg) were incubated with 2.5 μM dansyl-polymyxin B in 5 mM HEPES buffer for 5–10 min at pH 7.4. The CSP-4 peptide was added in 0.4 μM increments from 0.4 to 4 μM. The increase in fluorescence intensity was assessed using a spectrofluorometer at an excitation wavelength of 340 nm and an emission wavelength of 482 nm (Perkin-Elmer LS55).
# [7] = tested on: S. aureus LTA; assay: Peptide-LTA binding affinity assay (dansyl polymyxin B); conditions: LTA 9 µg, 2.5 μM dansyl polymyxin B, 5 mM HEPES buffer pH 7.4, peptide 0.4 to 4 μM
# Method: as §3
# [8] = tested on: S. aureus 0027; assay: microbe, parasite or virus in culture; assay type: cell-based, Staphylococcus aureus; conditions: pH 7.4 (II); 10 mM sodium phosphate buffer, 10% LB; 37° C, 24 h; mean of 3 experiments
# From the text: as §1, §2
# [9] = tested on: S. aureus 1635; assay: microbe, parasite or virus in culture; assay type: cell-based, Staphylococcus aureus; conditions: pH 7.4 (II); 10 mM sodium phosphate buffer, 10% LB; 37° C, 24 h; mean of 3 experiments
# From the text: as §1, §2
# [10] = tested on: S. aureus 2122; assay: microbe, parasite or virus in culture; assay type: cell-based, Staphylococcus aureus; conditions: pH 7.4 (II); 10 mM sodium phosphate buffer, 10% LB; 37° C, 24 h; mean of 3 experiments
# From the text: as §1, §2
# [11] = tested on: S. aureus 4761; assay: microbe, parasite or virus in culture; assay type: cell-based, Staphylococcus aureus; conditions: pH 7.4 (II); 10 mM sodium phosphate buffer, 10% LB; 37° C, 24 h; mean of 3 experiments
# From the text: as §1, §2
# [12] = tested on: S. aureus 5156; assay: microbe, parasite or virus in culture; assay type: cell-based, Staphylococcus aureus; conditions: pH 7.4 (II); 10 mM sodium phosphate buffer, 10% LB; 37° C, 24 h; mean of 3 experiments
# From the text: as §1, §2
# [13] = tested on: S. aureus 1630; assay: microbe, parasite or virus in culture; assay type: cell-based, Staphylococcus aureus; conditions: pH 7.4 (II); 10 mM sodium phosphate buffer, 10% LB; 37° C, 24 h; mean of 3 experiments
# From the text: as §1, §2
# [14] = tested on: S. aureus 1870; assay: microbe, parasite or virus in culture; assay type: cell-based, Staphylococcus aureus; conditions: pH 7.4 (II); 10 mM sodium phosphate buffer, 10% LB; 37° C, 24 h; mean of 3 experiments
# From the text: as §1, §2
# [15] = tested on: S. aureus 3518; assay: microbe, parasite or virus in culture; assay type: cell-based, Staphylococcus aureus; conditions: pH 7.4 (II); 10 mM sodium phosphate buffer, 10% LB; 37° C, 24 h; mean of 3 experiments
# From the text: as §1, §2
# [16] = tested on: S. aureus 5159; assay: microbe, parasite or virus in culture; assay type: cell-based, Staphylococcus aureus; conditions: pH 7.4 (II); 10 mM sodium phosphate buffer, 10% LB; 37° C, 24 h; mean of 3 experiments
# From the text: as §1, §2
# [17] = tested on: S. aureus 3359; assay: microbe, parasite or virus in culture; assay type: cell-based, Staphylococcus aureus; conditions: pH 7.4 (II); 10 mM sodium phosphate buffer, 10% LB; 37° C, 24 h; mean of 3 experiments
# From the text: as §1, §2
substance,measurement,setting,value
FLRFIGSVKHGKGHLVHHIGVAL-NH2 [CSP-4],Depth of penetration into skin,[1],25–40 μm
same,MIC,[2],4 µM
same,MIC,[3],4 µM
same,MIC,[4],2 µM
same,MIC,[5],2 µM
same,Binding to LPS (fluorescence of dansyl polymyxin B),[6],dose-dependent increase in fluorescence intensity
same,Binding to LTA (fluorescence of dansyl polymyxin B),[7],dose-dependent increase in fluorescence intensity
same,MIC,[8],8 µM
same,MIC,[9],8 µM
same,MIC,[10],8 µM
same,MIC,[11],8 µM
same,MIC,[12],8 µM
same,MIC,[13],8 µM
same,MIC,[14],8 µM
same,MIC,[15],8 µM
same,MIC,[16],8 µM
same,MIC,[17],8 µM
